The values below come from PubChem BioAssay AID1996.

SMILES strings stand for the structures. Converted amounts (≈) assume the structure as drawn.

For this data set the following is noted: buffer; pH 7.4; 200.0 µM.
As usually defined, the kinetic solubility is solubility judged after dilution from a stock solution rather than from solid. Compound `O=C(c1ccc2c(c1)OCCO2)N1CCN(c2ccccn2)CC1` came in with a solubility (kinetic) of more than 48.8 µg/mL. With `O=C(CN1C(=O)c2ccccc2S1(=O)=O)NCc1ccccc1` the figure was more than 49.6 µg/mL; with `CC(C)(C)c1ccccc1NC(=O)NC1CCN(Cc2c(F)cccc2Cl)CC1`, 0.5 µg/mL (≈ 1.2 µM). The compound `CN(C)CC/C=C1\c2ccccc2Sc2cc(F)c(Cl)cc21.Cl` had a solubility (kinetic) of 43 µg/mL. Against the preceding compound, the solubility kinetic is about 86-fold higher. With `CC#CC[N+](C)(C)CCCCCCCCCC.[Br-]` the figure was more than 47.8 µg/mL; with `O=C(O)c1cn(-c2ccc(F)cc2)c2cc(Cl)c(F)cc2c1=O`, more than 50.4 µg/mL; with `CNc1nc(-c2ccc(OC)cc2)c(-c2ccc(OC)cc2)s1`, 1.8 µg/mL (≈ 5.51 µM). The figure for `CS(=O)(=O)N(CC(=O)Nc1cccc(Br)c1)Cc1ccccc1` is 51.3 µg/mL (≈ 129 µM); for `O=C(c1cccc(Cl)c1)N1CCCc2ccccc21` it is 33.6 µg/mL (≈ 124 µM); for `Cc1ccc(NC(=O)CN2C(=O)c3ccccc3C2=O)c(C)c1` it is 4.4 µg/mL (≈ 14.3 µM). In turn, `CC1(c2ccccc2)CC(c2ccccc2)=Nc2ccccc2N1` (stereo unspecified) came in with a solubility (kinetic) of 5.8 µg/mL (≈ 18.6 µM). The figure for `Cc1nc(SCc2cccnc2)[nH]c(=O)c1C` is more than 37.1 µg/mL. In the case of `COc1ccc(N(C)C(=S)Nc2ccc3nc(C)c(C)nc3c2)cc1`, the kinetic solubility stood at 4.1 µg/mL (≈ 11.6 µM). The compound `COc1cccc2cc(-c3ccnc(N)n3)oc12` had a solubility (kinetic) of 2.6 µg/mL (≈ 10.8 µM). This solubility kinetic lies about 1.6-fold lower than the previous one.

On to `CCCC1(c2ccccc2)NC(=O)NC1=O` (stereo unspecified), for which the solubility (kinetic) is more than 32.7 µg/mL. The figure for `Cc1cc(NC(=O)Nc2ccc(Cl)c(Cl)c2)no1` is less than 0.2 µg/mL; for `CCNC(=O)COC(=O)c1cc(C)nc2ccccc12` it is more than 40.8 µg/mL; for `Cc1ccc(S(=O)(=O)CC(O)COc2ccccc2C#N)cc1` (stereo unspecified) it is more than 49.7 µg/mL. On to `Cc1ccc(-c2cc[n+](Cc3ccccc3)cc2)cc1.[Cl-]`, for which the solubility (kinetic) is more than 44.4 µg/mL. Regarding `CCCOc1ccc(N2C(=O)C/C(=C\c3ccccc3)C2=O)cc1`, the kinetic solubility was less than 0.7 µg/mL. Turning to `COCc1nc2ccccc2n1CCc1ccccc1`, the kinetic solubility is more than 40 µg/mL. The figure for `Cc1ccc(C(=O)O)cc1NCc1ccncc1` is more than 36.3 µg/mL; for `CSc1nc(-c2ccccc2)nc(NC(C)=O)c1C(C)=O` it is 3.9 µg/mL (≈ 12.9 µM); for `Nc1nc2c(ncn2C2C[C@H](O)[C@@H](CO)O2)c(=O)[nH]1` (stereo partly specified) it is more than 40.1 µg/mL. The figure for `Cc1cccc(C)c1NC(=S)NCc1ccccc1` is more than 40.6 µg/mL; for `O=c1c2ccccc2ncn1-c1ccc([N+](=O)[O-])cc1[N+](=O)[O-]` it is 2.7 µg/mL (≈ 8.65 µM); for `Cc1c(NC(=O)CN2CCCC(C)C2)ccc2nsnc12` (stereo unspecified) it is 42.6 µg/mL (≈ 140 µM). `Cc1cnc(C(=O)NC(Cc2ccccc2)c2ccccc2)cn1` (stereo unspecified) returned a kinetic solubility of 0.9 µg/mL (≈ 2.84 µM). The figure for `COCCn1c(SCC(=O)N2CCOCC2)nc2ccccc2c1=O` is 51.5 µg/mL (≈ 142 µM); for `Cc1nc2cc(NC(=O)NCCCO)ccc2o1` it is more than 37.4 µg/mL. For `Cc1c(Cl)cccc1NC(=O)C1CC2CCC1C2` (stereo unspecified), the kinetic solubility is 1.5 µg/mL (≈ 5.69 µM). Compound `CC(Oc1ccccc1)C(=O)NC1CCSc2ccccc21` (stereo unspecified) yielded a kinetic solubility of 25.9 µg/mL (≈ 82.6 µM). Turning to `S=C(Nc1ccccc1)Nc1ccccc1Br`, the kinetic solubility came to 16.4 µg/mL (≈ 53.4 µM). The compound `CC(SCc1ccccc1)C(=O)Nc1ccccc1F` (stereo unspecified) yielded a kinetic solubility of 35.1 µg/mL (≈ 121 µM). On to `CC(=O)Nc1sc(-c2ccc(Cl)cc2)nc1-c1ccccc1`, for which the solubility (kinetic) is less than 0.4 µg/mL.

For the compound `CCN1CCC(N2CCN(c3ccccc3OC)CC2)CC1`, the kinetic solubility was more than 45.5 µg/mL. Consider `O=C(COC(=O)c1ccccc1F)Nc1ccc(S(=O)(=O)N2CCOCC2)cc1`, for which the solubility (kinetic) came to 38 µg/mL (≈ 90 µM). The figure for `CCC(C)Nc1nc(N)c([N+](=O)[O-])c(NCCO)n1` (stereo unspecified) is 39.6 µg/mL (≈ 147 µM); for `COc1cc(OC)cc(C2=NC3(CCC(C)CC3)NC2=S)c1` (stereo unspecified) it is 2.2 µg/mL (≈ 6.91 µM).

Compound `CC(=O)Nc1cccc(NC(=O)C2C3C=CC(C3)C2C(=O)O)c1` (stereo unspecified) came in with a solubility (kinetic) of more than 47.2 µg/mL. The figure for `COc1cc2[nH]c(=S)n(Cc3ccc(C)cc3)c(=O)c2cc1OC` is less than 0.4 µg/mL.

The compound `COc1ccc(C)cc1S(=O)(=O)n1cnc2ccccc21` returned a solubility (kinetic) of 6.8 µg/mL (≈ 22.5 µM).

Consider `Cc1cc(SCC(=O)c2ccc(O)c(O)c2)nc2ccccc12`, for which the kinetic solubility worked out at 3.5 µg/mL (≈ 10.8 µM). The figure for `C=CCn1c(SCC(C)=O)nc2scc(-c3ccc(C)o3)c2c1=O` is 1.6 µg/mL (≈ 4.44 µM); for `COc1ccccc1CNS(=O)(=O)c1ccc(Br)s1` it is 32.4 µg/mL (≈ 89.4 µM).

As to `COc1ccc(N2C(=O)c3ccccc3NC2(C)C)cc1`, the kinetic solubility is 8.3 µg/mL (≈ 29.4 µM). With `CC(C)/C(C=O)=C(/NC1CCCCC1)c1ccccc1` the figure was 0.9 µg/mL (≈ 3.32 µM). In turn, `Fc1ccc(-n2cc(-c3ccccc3)c3c(=S)nc[nH]c32)cc1` displayed a kinetic solubility of less than 0.2 µg/mL. In the case of `CCOCCCNc1c(CC)c(C)c(C#N)c2nc3ccccc3n12`, the solubility (kinetic) was 6.5 µg/mL (≈ 19.3 µM). The figure for `Cc1cc(C)cc(Nc2ncnc3nc[nH]c23)c1` is 7.7 µg/mL (≈ 32.2 µM); for `Cc1ccc(C23CC4CC(CC(C(N)=O)(C4)C2)C3)cc1` it is 16.6 µg/mL (≈ 61.6 µM).
